Measurements reported in patent US20190231788A1, “COMPOSITIONS COMPRISING TIMOLOL AND AN ANTI-INFLAMMATORY AGENT” (Almirall, S.A., priority 2016, published 2019).

How the values were obtained:
TPA-induced ear oedema [1] = assay: TPA-induced ear oedema model in Balb/c mice, single topical application; assay type: in vivo
Protocol: Evaluation of the Anti-Oedema Effect of Ivermectin, Praziquantel and Timolol and Combinations of Timolol with Ivermectin or Praziquantel after a Single Topical Application in the TPA-Induced Ear Oedema Model in Balb/c Mice.
The oedema is induced by means of a single application to the right ear of the mouse of 10 μl of a solution of TPA (phorbol 12-myristate 13-acetate) in acetone at 0.01%. The test compounds are diluted in acetone and applied with TPA. The weight of the mouse ears is measured at T+6 h and the weight of the left ear is subtracted from the one of the right ear.
Treatments: • A. Ivermectin is applied at a concentration of 0.1-0.3-1%, • B. Praziquantel is applied at a concentration at 0.3-1-3% • C. Timolol is applied at a concentration at 0.2-0.5-1%.
For combination studies Ivermectin alone is applied at a concentration of 0.3%, praziquantel alone is applied at 1% and timolol alone is applied at 0.5%. These same strengths are used in the combinations.
Each graph represents the average weight of the ear oedema of four different groups of treated animals. Each group includes 6 animals. Numbers above the bars indicate the percentage inhibition of the corresponding group of treated animals vs the control group.

TPA-induced ear oedema [2] = details: topical 0.2%; mice; cited from earlier work
[3] = dose-response study (FIGS. A-C), 0.3% in acetone applied with TPA, ear weight at T+6 h
[4] = dose-response study (FIGS. A-C), 1% in acetone applied with TPA, ear weight at T+6 h

## O=C(C1CCCCC1)N1CC(=O)N2CCc3ccccc3C2C1 (racemic) [praziquantel, (RS)-2-(Cyclohexylcarbonyl)-1,2,3,6,7,11b-hexahydro-4H-pyrazino[2,1-a]isoquinolin-4-one]
TPA-induced ear oedema [1]; combination study FIG. 2, praziquantel alone at 1%, T+6 h
  inhibition of ear oedema vs control group: 42%
TPA-induced ear oedema [1]; [3]
  inhibition of ear oedema vs control group: 15%
TPA-induced ear oedema [1]; [4]
  inhibition of ear oedema vs control group: 48%
TPA-induced ear oedema [1]; dose-response study (FIGS. A-C), 3% in acetone applied with TPA, ear weight at T+6 h
  inhibition of ear oedema vs control group: 91%

## Brc1c(NC2=NCCN2)ccc2nccnc12 [brimonidine]
TPA-induced ear oedema [2]
  inhibition of TPA-induced ear oedema: 50%

## CC[C@H](C)[C@H]1O[C@]2(CC[C@@H]1C)C[C@@H]1C[C@@H](C/C=C(\C)C(O[C@H]3C[C@H](OC)C(O[C@H]4C[C@H](OC)[C@@H](O)[C@H](C)O4)[C@H](C)O3)[C@@H](C)/C=C/C=C3\CO[C@@H]4[C@H](O)C(C)=C[C@@H](C(=O)O1)[C@]34O)O2 (some centres unmarked) [ivermectin, 22,23-dihydroavermectin B1a]
TPA-induced ear oedema [1]; combination study FIG. 1, ivermectin alone at 0.3%, T+6 h
  inhibition of ear oedema vs control group: 37%
TPA-induced ear oedema [1]; dose-response study (FIGS. A-C), 0.1% in acetone applied with TPA, ear weight at T+6 h
  inhibition of ear oedema vs control group: 20%
TPA-induced ear oedema [1]; [3]
  inhibition of ear oedema vs control group: 43%
TPA-induced ear oedema [1]; [4]
  inhibition of ear oedema vs control group: 82%

## CC(C)(C)NC[C@H](O)COc1nsnc1N1CCOCC1 [timolol, (S)-1-(tert-butylamino)-3-[(4-morpholin-4-yl-1,2,5-thiadiazol-3-yl)oxy]propan-2-ol]
TPA-induced ear oedema [1]; combination study FIG. 1, timolol alone at 0.5%, T+6 h
  inhibition of ear oedema vs control group: 30%
TPA-induced ear oedema [1]; combination study FIG. 2, timolol alone at 0.5%, T+6 h
  inhibition of ear oedema vs control group: 16%
TPA-induced ear oedema [1]; dose-response study (FIGS. A-C), 0.2% in acetone applied with TPA, ear weight at T+6 h
  inhibition of ear oedema vs control group: 6%
TPA-induced ear oedema [1]; dose-response study (FIGS. A-C), 0.5% in acetone applied with TPA, ear weight at T+6 h
  inhibition of ear oedema vs control group: 23%
TPA-induced ear oedema [1]; [4]
  inhibition of ear oedema vs control group: 14%
